Data from patent US10189853B2, “Conformationally restricted 4-substituted-2,6-dimethylfuro[2,3-d]pyrimidines as anti-tumor agents” (DUQUESNE UNIVERSITY OF THE HOLY SPIRIT, priority 2014, dated 2019).

Columns and labels:
HCC-2998 = assay: NCI 60 cell line panel; format: cell-based; conditions: Homo sapiens, Colon Cancer
HL-60(TB) = assay: NCI 60 cell line panel; format: cell-based; conditions: Homo sapiens, Leukemia
EKVX = assay: NCI 60 cell line panel; format: cell-based; conditions: Homo sapiens, NSCLC
DU-145 = assay: NCI 60 cell line panel; format: cell-based; conditions: Homo sapiens, Prostate Cancer
UACC-62 = assay: NCI 60 cell line panel; format: cell-based; conditions: Homo sapiens, Melanoma
SK-MEL-2 = assay: NCI 60 cell line panel; format: cell-based; conditions: Homo sapiens
PDGFR-β = PDGFR-β (Homo sapiens (Human), UniProt P09619); assay: PDGFR-β kinase inhibition, phosphotyrosine ELISA cytoblot; format: cell-based
Chain of PDGFR-β (P09619 33-1106): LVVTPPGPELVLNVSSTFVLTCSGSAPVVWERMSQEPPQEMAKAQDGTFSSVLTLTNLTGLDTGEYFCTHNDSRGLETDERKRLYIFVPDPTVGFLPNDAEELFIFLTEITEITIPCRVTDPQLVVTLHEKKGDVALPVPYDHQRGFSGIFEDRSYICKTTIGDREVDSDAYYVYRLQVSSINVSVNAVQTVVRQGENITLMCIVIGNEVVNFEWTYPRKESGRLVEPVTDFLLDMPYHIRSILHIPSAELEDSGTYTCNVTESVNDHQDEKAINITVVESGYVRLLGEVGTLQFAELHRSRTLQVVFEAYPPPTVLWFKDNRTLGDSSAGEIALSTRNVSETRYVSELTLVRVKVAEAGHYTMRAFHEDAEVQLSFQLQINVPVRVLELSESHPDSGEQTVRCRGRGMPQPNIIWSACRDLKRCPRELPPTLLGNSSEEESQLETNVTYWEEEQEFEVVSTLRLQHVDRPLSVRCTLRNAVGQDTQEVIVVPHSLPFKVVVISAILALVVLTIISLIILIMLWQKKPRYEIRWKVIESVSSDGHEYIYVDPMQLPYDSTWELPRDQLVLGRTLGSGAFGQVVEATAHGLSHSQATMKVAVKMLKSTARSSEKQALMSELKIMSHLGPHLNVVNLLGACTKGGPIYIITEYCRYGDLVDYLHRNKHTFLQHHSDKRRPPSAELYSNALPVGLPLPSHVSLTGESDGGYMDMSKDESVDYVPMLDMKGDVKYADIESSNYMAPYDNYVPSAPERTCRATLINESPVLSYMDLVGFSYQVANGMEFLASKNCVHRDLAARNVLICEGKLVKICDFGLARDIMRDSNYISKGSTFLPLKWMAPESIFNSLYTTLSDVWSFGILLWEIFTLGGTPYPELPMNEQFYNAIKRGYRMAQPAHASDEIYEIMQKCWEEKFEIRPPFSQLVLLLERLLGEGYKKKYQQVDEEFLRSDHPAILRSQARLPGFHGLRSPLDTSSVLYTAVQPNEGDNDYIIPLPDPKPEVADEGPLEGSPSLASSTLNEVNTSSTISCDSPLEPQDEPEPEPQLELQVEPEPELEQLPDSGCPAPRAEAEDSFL
Protocol: (§1) Cells used were tumor cell lines naturally expressing high levels of EGFR (A431), VEGFR-2 (U251), and PDGFR-β (SH-SYSY). […] The reaction was stopped and cells were permeabilized by quickly removing the media from the cells and adding ice-cold Tris-buffered saline (TBS) containing 0.05% Triton X-100, protease inhibitor cocktail and tyrosine phosphatase inhibitor cocktail. The TBS solution was then removed and cells fixed to the plate for 30 min at 60° C. and further incubation in 70% ethanol for an additional 30 min. Cells were further exposed to block (TBS with 1% BSA) for 1 h, washed, and then a horseradish peroxidase (HRP)-conjugated phosphotyrosine (PY) antibody was added overnight.

SR = assay: NCI 60 cell line panel; format: cell-based; conditions: Homo sapiens, Leukemia
[1] = system: M6/6 cells (SK-OV-3 expressing Pgp); assay: Antiproliferative SRB assay; conditions: M6/6 (Pgp) vs SKOV3
PC-3 = assay: NCI 60 cell line panel; format: cell-based; conditions: Homo sapiens, Prostate Cancer
MCF7 = assay: NCI 60 cell line panel; format: cell-based; conditions: Homo sapiens, Breast Cancer
EGFR = EGFR (Homo sapiens (Human), UniProt P00533); assay: EGFR kinase inhibition, phosphotyrosine ELISA cytoblot; format: cell-based; conditions: A431 cells
Chain of EGFR (P00533 25-1210): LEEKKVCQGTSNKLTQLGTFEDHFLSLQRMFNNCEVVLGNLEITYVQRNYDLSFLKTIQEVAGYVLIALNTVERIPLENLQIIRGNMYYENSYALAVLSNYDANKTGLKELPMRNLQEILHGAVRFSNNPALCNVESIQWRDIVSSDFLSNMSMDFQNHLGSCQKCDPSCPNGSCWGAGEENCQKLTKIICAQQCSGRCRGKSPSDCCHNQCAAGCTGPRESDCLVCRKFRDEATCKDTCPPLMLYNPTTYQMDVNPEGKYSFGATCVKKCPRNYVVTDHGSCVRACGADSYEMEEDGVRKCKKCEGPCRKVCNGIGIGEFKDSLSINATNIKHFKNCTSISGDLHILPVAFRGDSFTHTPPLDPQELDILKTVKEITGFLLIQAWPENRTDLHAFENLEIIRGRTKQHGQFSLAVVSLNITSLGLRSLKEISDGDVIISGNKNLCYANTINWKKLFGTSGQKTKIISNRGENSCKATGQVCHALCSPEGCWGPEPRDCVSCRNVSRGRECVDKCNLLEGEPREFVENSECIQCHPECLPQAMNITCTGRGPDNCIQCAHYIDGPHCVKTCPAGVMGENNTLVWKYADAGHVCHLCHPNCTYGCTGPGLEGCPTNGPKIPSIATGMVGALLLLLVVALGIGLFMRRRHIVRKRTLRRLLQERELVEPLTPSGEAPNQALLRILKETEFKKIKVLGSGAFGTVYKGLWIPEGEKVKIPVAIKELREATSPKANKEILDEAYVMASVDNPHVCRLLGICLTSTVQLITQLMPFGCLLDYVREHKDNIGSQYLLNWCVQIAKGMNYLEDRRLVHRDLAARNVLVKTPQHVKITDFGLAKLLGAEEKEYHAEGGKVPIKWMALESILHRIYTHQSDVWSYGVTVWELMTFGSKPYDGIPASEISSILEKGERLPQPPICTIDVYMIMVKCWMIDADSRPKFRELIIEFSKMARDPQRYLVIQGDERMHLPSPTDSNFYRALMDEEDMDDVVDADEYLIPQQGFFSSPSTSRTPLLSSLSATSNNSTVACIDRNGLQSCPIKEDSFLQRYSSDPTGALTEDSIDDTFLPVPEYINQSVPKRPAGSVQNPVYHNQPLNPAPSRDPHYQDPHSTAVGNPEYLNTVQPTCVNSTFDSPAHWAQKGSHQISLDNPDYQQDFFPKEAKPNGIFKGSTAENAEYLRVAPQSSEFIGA
Protocol: as §1

HOP-92 = assay: NCI 60 cell line panel; format: cell-based; conditions: Homo sapiens, NSCLC
A549/ATCC = assay: NCI 60 cell line panel; format: cell-based; conditions: Homo sapiens, NSCLC
NCI-H322M = assay: NCI 60 cell line panel; format: cell-based; conditions: Homo sapiens, NSCLC
SK-MEL-28 = assay: NCI 60 cell line panel; format: cell-based; conditions: Homo sapiens, Melanoma
RPMI-8226 = assay: NCI 60 cell line panel; format: cell-based; conditions: Homo sapiens, Leukemia
[2] = system: colchicine site on tubulin; assay: Inhibition of [3H]colchicine binding
MALME-3M = assay: NCI 60 cell line panel; format: cell-based; conditions: Homo sapiens, Melanoma
A498 = assay: NCI 60 cell line panel; format: cell-based; conditions: Homo sapiens, Renal Cancer

SMILES	GI50 (HCC-2998) [nM]	GI50 (HL-60(TB)) [nM]	GI50 (EKVX) [nM]	GI50 (DU-145) [nM]	GI50 (UACC-62) [nM]	GI50 (SK-MEL-2) [nM]	GI50 (PC-3) [nM]	GI50 (MCF7) [nM]	IC50 (EGFR) [nM]	GI50 (HOP-92) [nM]	also measured
Cc1nc(N(C)c2ccc3occc3c2)c2cc(C)oc2n1 [Compound 7, N-1-benzofuran-5-yl-N,2,6-trimethylfuro[2,3-d]pyrimidin-4-amine]	185	41.2	396	198	57.1	82.4	183	43.8	307 ± 42.1	226	IC50 (PDGFR-β; SH-SY5Y cells, phosphotyrosine ELISA): 25 ± 4.8 nM; fold better than sunitinib, PDGFR-β (PDGFR-β; vs sunitinib): about 4 fold; GI50 (SR): 62.4 nM; Rr value (relative resistance) [1]: 1.2
COc1ccc2c(c1)CCCN2c1nc(C)nc2oc(C)cc12 [Compound 10, 4-(6-methoxy-3,4-dihydroquinolin-1(2H)-yl)-2,6-dimethylfuro[2,3-d]pyrimidine]	12	< 10	< 10	< 10	< 10	< 10	< 10	< 10	3.4 ± 0.8	58.6	GI50 (A549/ATCC): < 10 nM; GI50 (NCI-H322M): < 10 nM; GI50 (SK-MEL-28): < 10 nM; GI50 (RPMI-8226): < 10 nM; Inhibition of colchicine binding % inhibition ± SD ([2]; 1 μM): 82 ± 3%; Inhibition of colchicine binding % inhibition ± SD ([2]; 5 μM): 96 ± 1%; GI50 (MALME-3M): < 10 nM; GI50 (A498): < 10 nM
